Reference: patent US10954269B2, “Anti-inflammatory tripeptides” (Dr. August Wolff Gmbh & Co. KG Arzneimittel, priority 2013, dated 2021)
[ ]: non-standard residue; d: D form. Aib = CC(C)(N)C(=O)O

Tested on: primary murine T-cells
Assay: Cytokine secretion on protein level in activated primary murine T-cells (13-plex FACS / Luminex, supernatant)
Assay type: cell-based, C57BL/6 mice
Conditions: for IFN-γ* cytokine concentration / IL-2* cytokine concentration: 1:10 dilution of the supernatants
How it was run: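 T-cells from secondary lymphatic organs of naïve C57BL/6 mice, stimulated with PMA/Ionomycin or IFN-γ; supernatant cytokines measured by 13-plex FACS 48 h and 72 h after stimulation. In another run, PMA/Ionomycin-stimulated cells received compounds at 10^−7, 10^−9 and 10^−11 M, with IFN-γ, IL-17 and IL-10 measured by Luminex.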

[1] = primary murine T-cells stimulated with IFN-γ, 10^−9M
[2] = primary murine T-cells stimulated with IFN-γ, substance 10^−9M
[3] = primary murine T-cells stimulated with PBS, 10^−9M
[4] = primary murine T-cells stimulated with PBS, substance 10^−9M
[5] = primary murine T-cells stimulated with PMA/Ionomycin, 10^−9M
[6] = primary murine T-cells stimulated with PMA/Ionomycin, substance 10^−9M

H-Lys-[dP]-Thr-OH [K(D)PT, reference compound]
IL-1 cytokine concentration [1]: 26.6 pg/mL
IL-2 cytokine concentration [1]: 0 pg/mL
IL-4 cytokine concentration [1]: 0 pg/mL
IL-5 cytokine concentration [1]: 0 pg/mL
IL-6 cytokine concentration [1]: 0 pg/mL
IL-10 cytokine concentration [1]: 0 pg/mL
IL-13 cytokine concentration [1]: 0 pg/mL
IL-17 cytokine concentration [1]: 0 pg/mL
IL-21 cytokine concentration [1]: 0 pg/mL
IL-22 cytokine concentration [1]: 0 pg/mL
IL-27 cytokine concentration [1]: 209.12 pg/mL
TNF-α cytokine concentration [1]: 0 pg/mL
IL-1 cytokine concentration [2]: 93.77 pg/mL
IL-2 cytokine concentration [2]: 98.22 pg/mL
IL-4 cytokine concentration [2]: 85.32 pg/mL
IL-5 cytokine concentration [2]: 271.81 pg/mL
IL-6 cytokine concentration [2]: 144.97 pg/mL
IL-10 cytokine concentration [2]: 1061 pg/mL
IL-13 cytokine concentration [2]: 0 pg/mL
IL-17 cytokine concentration [2]: 88.84 pg/mL
IL-21 cytokine concentration [2]: 0 pg/mL
IL-22 cytokine concentration [2]: 48.13 pg/mL
IL-27 cytokine concentration [2]: 0 pg/mL
TNF-α cytokine concentration [2]: 34.84 pg/mL
IFN-γ cytokine concentration [3]: 0 pg/mL
IL-1 cytokine concentration [3]: 0 pg/mL
IL-2 cytokine concentration [3]: 0 pg/mL
IL-4 cytokine concentration [3]: 0 pg/mL
IL-5 cytokine concentration [3]: 0 pg/mL
IL-6 cytokine concentration [3]: 27.81 pg/mL
IL-10 cytokine concentration [3]: 64.53 pg/mL
IL-13 cytokine concentration [3]: 0 pg/mL
IL-17 cytokine concentration [3]: 16.26 pg/mL
IL-21 cytokine concentration [3]: 0 pg/mL
IL-22 cytokine concentration [3]: 0 pg/mL
IL-27 cytokine concentration [3]: 25.93 pg/mL
TNF-α cytokine concentration [3]: 0 pg/mL
IFN-γ cytokine concentration [4]: 0 pg/mL
IL-1 cytokine concentration [4]: 60.41 pg/mL
IL-2 cytokine concentration [4]: 124.13 pg/mL
IL-4 cytokine concentration [4]: 71.69 pg/mL
IL-5 cytokine concentration [4]: 373.93 pg/mL
IL-6 cytokine concentration [4]: 124 pg/mL
IL-10 cytokine concentration [4]: 1039.39 pg/mL
IL-13 cytokine concentration [4]: 0 pg/mL
IL-17 cytokine concentration [4]: 0 pg/mL
IL-21 cytokine concentration [4]: 0 pg/mL
IL-22 cytokine concentration [4]: 78.32 pg/mL
IL-27 cytokine concentration [4]: 87.48 pg/mL
TNF-α cytokine concentration [4]: 77.74 pg/mL
IL-1 cytokine concentration [5]: 30.27 pg/mL
IL-4 cytokine concentration [5]: 71.79 pg/mL
IL-5 cytokine concentration [5]: 280.87 pg/mL
IL-6 cytokine concentration [5]: 140.97 pg/mL
IL-10 cytokine concentration [5]: 188.56 pg/mL
IL-13 cytokine concentration [5]: 4314.15 pg/mL
IL-17 cytokine concentration [5]: 423.67 pg/mL
IL-21 cytokine concentration [5]: 0 pg/mL
IL-22 cytokine concentration [5]: 333.4 pg/mL
IL-27 cytokine concentration [5]: 99.7 pg/mL
TNF-α cytokine concentration [5]: 515.54 pg/mL
IFN-γ* cytokine concentration [5]: 712.81 pg/mL
IL-2* cytokine concentration [5]: 1288.92 pg/mL
IFN-γ cytokine concentration [6]: 2117.29 pg/mL
IL-1 cytokine concentration [6]: 175.59 pg/mL
IL-2 cytokine concentration [6]: 152.69 pg/mL
IL-4 cytokine concentration [6]: 72.07 pg/mL
IL-5 cytokine concentration [6]: 238.08 pg/mL
IL-6 cytokine concentration [6]: 201.87 pg/mL
IL-10 cytokine concentration [6]: 1133.29 pg/mL
IL-13 cytokine concentration [6]: 0 pg/mL
IL-17 cytokine concentration [6]: 70.93 pg/mL
IL-21 cytokine concentration [6]: 0 pg/mL
IL-22 cytokine concentration [6]: 90.3 pg/mL
IL-27 cytokine concentration [6]: 126.71 pg/mL
TNF-α cytokine concentration [6]: 49.63 pg/mL

H-Phe-Pro-[Aib]-OH [Example 13]
IL-1 cytokine concentration [2]: 82.68 pg/mL
IL-2 cytokine concentration [2]: 237.05 pg/mL
IL-4 cytokine concentration [2]: 0 pg/mL
IL-5 cytokine concentration [2]: 342.32 pg/mL
IL-6 cytokine concentration [2]: 220.06 pg/mL
IL-10 cytokine concentration [2]: 968.94 pg/mL
IL-13 cytokine concentration [2]: 0 pg/mL
IL-17 cytokine concentration [2]: 26.88 pg/mL
IL-21 cytokine concentration [2]: 0 pg/mL
IL-22 cytokine concentration [2]: 334.1 pg/mL
IL-27 cytokine concentration [2]: 151.6 pg/mL
TNF-α cytokine concentration [2]: 52.48 pg/mL
IFN-γ cytokine concentration [4]: 5058.59 pg/mL
IL-1 cytokine concentration [4]: 64.4 pg/mL
IL-2 cytokine concentration [4]: 173.84 pg/mL
IL-4 cytokine concentration [4]: 25.55 pg/mL
IL-5 cytokine concentration [4]: 401.21 pg/mL
IL-6 cytokine concentration [4]: 168.6 pg/mL
IL-10 cytokine concentration [4]: 829.52 pg/mL
IL-13 cytokine concentration [4]: 0 pg/mL
IL-17 cytokine concentration [4]: 0 pg/mL
IL-21 cytokine concentration [4]: 0 pg/mL
IL-22 cytokine concentration [4]: 0 pg/mL
IL-27 cytokine concentration [4]: 302.6 pg/mL
TNF-α cytokine concentration [4]: 62.22 pg/mL
IFN-γ cytokine concentration [6]: 8109.91 pg/mL
IL-1 cytokine concentration [6]: 329.99 pg/mL
IL-2 cytokine concentration [6]: 260.49 pg/mL
IL-4 cytokine concentration [6]: 135.41 pg/mL
IL-5 cytokine concentration [6]: 452.71 pg/mL
IL-6 cytokine concentration [6]: 404.54 pg/mL
IL-10 cytokine concentration [6]: 1267.4 pg/mL
IL-13 cytokine concentration [6]: 0 pg/mL
IL-17 cytokine concentration [6]: 0 pg/mL
IL-21 cytokine concentration [6]: 432.64 pg/mL
IL-22 cytokine concentration [6]: 111.64 pg/mL
IL-27 cytokine concentration [6]: 387.94 pg/mL
TNF-α cytokine concentration [6]: 69.4 pg/mL

alpha-melanocyte-stimulating hormone [α-MSH, reference compound]
IL-1 cytokine concentration [1]: 14.89 pg/mL
IL-2 cytokine concentration [1]: 0 pg/mL
IL-4 cytokine concentration [1]: 0 pg/mL
IL-5 cytokine concentration [1]: 0 pg/mL
IL-6 cytokine concentration [1]: 0 pg/mL
IL-10 cytokine concentration [1]: 0 pg/mL
IL-13 cytokine concentration [1]: 0 pg/mL
IL-17 cytokine concentration [1]: 0 pg/mL
IL-21 cytokine concentration [1]: 0 pg/mL
IL-22 cytokine concentration [1]: 0 pg/mL
IL-27 cytokine concentration [1]: 0 pg/mL
TNF-α cytokine concentration [1]: 0 pg/mL
IL-1 cytokine concentration [2]: 88.22 pg/mL
IL-2 cytokine concentration [2]: 96.1 pg/mL
IL-4 cytokine concentration [2]: 20.56 pg/mL
IL-5 cytokine concentration [2]: 220.39 pg/mL
IL-6 cytokine concentration [2]: 133.9 pg/mL
IL-10 cytokine concentration [2]: 1117.07 pg/mL
IL-13 cytokine concentration [2]: 0 pg/mL
IL-17 cytokine concentration [2]: 55.11 pg/mL
IL-21 cytokine concentration [2]: 0 pg/mL
IL-22 cytokine concentration [2]: 50.6 pg/mL
IL-27 cytokine concentration [2]: 104.04 pg/mL
TNF-α cytokine concentration [2]: 36.8 pg/mL
IFN-γ cytokine concentration [3]: 0 pg/mL
IL-1 cytokine concentration [3]: 0 pg/mL
IL-2 cytokine concentration [3]: 0 pg/mL
IL-4 cytokine concentration [3]: 0 pg/mL
IL-5 cytokine concentration [3]: 0 pg/mL
IL-6 cytokine concentration [3]: 16.44 pg/mL
IL-10 cytokine concentration [3]: 55.47 pg/mL
IL-13 cytokine concentration [3]: 0 pg/mL
IL-17 cytokine concentration [3]: 0 pg/mL
IL-21 cytokine concentration [3]: 0 pg/mL
IL-22 cytokine concentration [3]: 0 pg/mL
IL-27 cytokine concentration [3]: 0 pg/mL
TNF-α cytokine concentration [3]: 0 pg/mL
IFN-γ cytokine concentration [4]: 0 pg/mL
IL-1 cytokine concentration [4]: 58.5 pg/mL
IL-2 cytokine concentration [4]: 105.75 pg/mL
IL-4 cytokine concentration [4]: 62.93 pg/mL
IL-5 cytokine concentration [4]: 281.14 pg/mL
IL-6 cytokine concentration [4]: 96.88 pg/mL
IL-10 cytokine concentration [4]: 1157.87 pg/mL
IL-13 cytokine concentration [4]: 0 pg/mL
IL-17 cytokine concentration [4]: 0 pg/mL
IL-21 cytokine concentration [4]: 0 pg/mL
IL-22 cytokine concentration [4]: 72.14 pg/mL
IL-27 cytokine concentration [4]: 77.41 pg/mL
TNF-α cytokine concentration [4]: 106.1 pg/mL
IL-1 cytokine concentration [5]: 28.92 pg/mL
IL-4 cytokine concentration [5]: 0 pg/mL
IL-5 cytokine concentration [5]: 262.76 pg/mL
IL-6 cytokine concentration [5]: 114.47 pg/mL
IL-10 cytokine concentration [5]: 276.08 pg/mL
IL-13 cytokine concentration [5]: 3966.69 pg/mL
IL-17 cytokine concentration [5]: 311.07 pg/mL
IL-21 cytokine concentration [5]: 0 pg/mL
IL-22 cytokine concentration [5]: 356.41 pg/mL
IL-27 cytokine concentration [5]: 0 pg/mL
TNF-α cytokine concentration [5]: 535.51 pg/mL
IFN-γ* cytokine concentration [5]: 0 pg/mL
IL-2* cytokine concentration [5]: 849.44 pg/mL
IFN-γ cytokine concentration [6]: 1458.12 pg/mL
IL-1 cytokine concentration [6]: 217.32 pg/mL
IL-2 cytokine concentration [6]: 163.19 pg/mL
IL-4 cytokine concentration [6]: 91.65 pg/mL
IL-5 cytokine concentration [6]: 215.44 pg/mL
IL-6 cytokine concentration [6]: 174.22 pg/mL
IL-10 cytokine concentration [6]: 1250.21 pg/mL
IL-13 cytokine concentration [6]: 0 pg/mL
IL-17 cytokine concentration [6]: 29.47 pg/mL
IL-21 cytokine concentration [6]: 0 pg/mL
IL-22 cytokine concentration [6]: 143.37 pg/mL
IL-27 cytokine concentration [6]: 104.52 pg/mL
TNF-α cytokine concentration [6]: 77.76 pg/mL
